We go through 6 molecules from patent US20090318389A1, “AGONISTS OF THE SPHINGOSINE-1 PHOSPHATE RECEPTOR” (PRAECIS PHARMACEUTICALS INCORPORATED, priority 2006, published 2009).

A word on the IC50: it is the concentration that inhibits the measured activity by half. Low readings indicate inhibition by little substance, high ones a need for much substance. In general, EC50 refers to the concentration giving half of the maximal effect. Read a high EC50 as lower potency in that assay.

SMILES strings stand for the structures. Some results are limits rather than exact numbers.

The target in one test is T1, S1P-3 receptor (Homo sapiens, UniProt Q99500).
T1 construct: expressed in transfected cells; host or cells: HEK 293 T cells (crude membranes)
Put plainly: [33P]sphingosine 1-phosphate binding assay, membranes of transfected HEK 293 T cells. As to conditions: 2.5 pM [33P]S1P, 60 minutes, room temperature. How it is done: (§1) The IC50 of a compound is determined using the [^33P]sphingosine 1-phosphate binding assay, as described in Davis, M. D. et al., Sphingosine 1-Phosphate Analogs as Receptor Antagonists. J. Biol. Chem. (2005) 280:9833-9841, the entire contents of which are incorporated herein by this reference.
(§2) The ability of several of the compounds described herein to bind to the S1P-1 or S1P-3 receptor was tested as follows.
(§3) For the membrane preparation, plasmid DNA was transfected into HEK 293 T cells using the FuGENE 6 transfection protocol Briefly, subconfluent monolayers of HEK 293 T cells were transfected with the DNA mixture containing FuGENE 6 (using a 1:3 ratio). The dishes containing the cells were then placed in a tissue culture incubator (5% CO2, 37° C.). The cells were harvested 48 hours after addition of the DNA by scraping in HME buffer (in mM: 20 HEPES, 5 MgCl2, 1 EDTA, pH 7.4, 1 mM PMSF) containing 10% sucrose on ice, and disrupted using aDounce homogenizer. After centrifugation at 800×g, the supernatant was diluted with HME without sucrose and centrifuged at 17,000×g for 1 hour. This crude membrane pellet was resuspended in HME with sucrose, aliquoted, and snap-frozen by immersion in liquid nitrogen. The membranes were stored at −70° C. Protein concentration was determined spectroscopically by Bradford protein assay.
(§4) For the binding assay, [^33P]sphingosine 1-phosphate (obtained from American Radiolabeled Chemicals, Inc) was added to membranes in 200 μL in 96-well plates with assay concentrations of 2.5 pM [^33P]sphingosine 1-phosphate, 4 mg/mL BSA, 50 mM HEPES, pH 7.5, 100 mM NaCl, 5 mM MgCl2, and 5 μg of protein. Binding was performed for 60 minutes at room temperature with gentle mixing and terminated by collecting the membranes onto GF/B filter plates. After drying the filter plates for 10 minutes, 50 μL of Microscint 40 was added to each well, and filter-bound radionuclide was measured on a Packard Top Count. Nonspecific binding was defined as the amount of radioactivity remaining in the presence of excess of unlabeled S1P.

Test [1] concerns the target T2, S1P-1 receptor (Homo sapiens, UniProt P21453).
T2 construct: expressed in transfected cells; host or cells: HEK 293 T cells (crude membranes)
Described as above. As to conditions: for IC50: binding, 2.5 pM [33P]S1P, 60 minutes, room temperature; for IC50/IC50 (S1P-3/S1P-1): selectivity for S1P-1 over S1P-3. How it is done: as §1, §2, §3, §4

The target of test [2] is T2, S1P-1 receptor. Put plainly: 35S-GTPγS binding assay (EC50, agonism). It counts as biochemical. As to conditions: 35S-GTPγS binding assay as described in WO 03/061567. How it is done:
The terms “agonist” or “S1P-1 receptor agonist” as used herein include the compounds described herein which bind to and/or agonize the S1P-1 receptor. The EC50 of a compound is determined using the ^35S-GTPγS binding assay, as described in WO 03/061567, the entire contents of which are incorporated herein by reference.

T2 sequence (P21453 whole entry): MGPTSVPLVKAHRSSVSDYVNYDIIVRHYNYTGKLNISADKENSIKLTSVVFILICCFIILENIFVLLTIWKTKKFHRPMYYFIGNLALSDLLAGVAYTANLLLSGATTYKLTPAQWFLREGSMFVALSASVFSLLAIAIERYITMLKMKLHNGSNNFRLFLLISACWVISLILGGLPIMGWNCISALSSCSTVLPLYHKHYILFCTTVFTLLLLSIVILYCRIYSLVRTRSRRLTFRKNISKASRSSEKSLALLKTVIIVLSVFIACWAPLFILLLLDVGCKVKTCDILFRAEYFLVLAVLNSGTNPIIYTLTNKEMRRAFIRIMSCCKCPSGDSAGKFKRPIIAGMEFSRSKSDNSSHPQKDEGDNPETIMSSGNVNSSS
T1 sequence (Q99500 whole entry): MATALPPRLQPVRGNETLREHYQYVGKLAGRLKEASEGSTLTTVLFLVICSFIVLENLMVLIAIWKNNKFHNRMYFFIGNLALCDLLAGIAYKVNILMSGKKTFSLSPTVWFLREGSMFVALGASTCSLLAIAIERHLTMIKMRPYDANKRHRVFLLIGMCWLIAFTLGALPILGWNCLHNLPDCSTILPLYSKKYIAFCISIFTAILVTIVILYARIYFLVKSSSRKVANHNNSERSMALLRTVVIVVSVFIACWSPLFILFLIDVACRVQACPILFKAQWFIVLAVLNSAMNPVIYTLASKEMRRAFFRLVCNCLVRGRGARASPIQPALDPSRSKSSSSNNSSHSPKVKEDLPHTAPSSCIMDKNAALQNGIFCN

`C[C@](N)(COP(=O)(O)O)c1nnc(-c2ccc(Sc3cccc(OCc4ccccc4)c3)cc2Cl)s1` displayed a half-maximal inhibitory concentration (IC50) at S1P-3 receptor of 100 to 1000 nM. Besides, on S1P-1 receptor [1], the IC50 fell in the range of 0.001 to 100 nM and the “IC50/IC50 (S1P-3/S1P-1)” value was “++ (good receptor selectivity (>100-1,000 fold))”.

As to `C[C@](N)(COP(=O)(O)O)c1ncc(-c2ccc(Sc3cccc(OCc4ccccc4)c3)c(C(F)(F)F)c2)[nH]1`, the concentration for half-maximal inhibition (IC50) on S1P-3 receptor lay within 1000 to 10000 nM. Moreover, on S1P-1 receptor [1], the 50% inhibitory concentration (IC50) is 0.001 to 100 nM and the “IC50/IC50 (S1P-3/S1P-1)” value is reported as “+++ (great receptor selectivity (>1,000 fold))”.

For the molecule `C[C@](N)(COP(=O)(O)O)c1nnc(-c2ccc(Sc3cccc(OCc4ccccc4)c3)c(C(F)(F)F)c2)s1`, the values for the IC50 at S1P-3 receptor and on S1P-1 receptor [1] were above 10000 nM and 0.001 to 100 nM, respectively.

`C[C@](N)(COP(=O)(O)O)C(=O)Nc1ccc(Sc2cccc(OCc3ccccc3)c2)cc1Cl` [compound 7a] yielded an EC50 at S1P-1 receptor [2] of 6.9 nM.

`C[C@](N)(COP(=O)(O)O)c1ncc(-c2ccc(Sc3cccc(OCc4ccccc4)c3)cc2Cl)[nH]1`: the half-inhibitory concentration (IC50) on S1P-3 receptor is 100 to 1000 nM. On S1P-1 receptor [1], the half-maximal inhibitory concentration (IC50) was 0.001 to 100 nM and the “IC50/IC50 (S1P-3/S1P-1)” value is recorded as “+++ (great receptor selectivity (>1,000 fold))”.

In the case of `C[C@](N)(COP(=O)(O)O)c1nnc(-c2ccc(Sc3cccc(O)c3)cc2Cl)s1`, the concentration for half-maximal inhibition (IC50) on S1P-3 receptor is above 10000 nM; on S1P-1 receptor [1] it was 100 to 1000 nM.
